Columns and labels:
NLRP3 inflammasome = target: T1, NLRP3 inflammasome (Homo sapiens, UniProt Q96P20); assay: IL-1β TR-FRET assay (THP-1 cells differentiated to macrophages with IFN-γ, LPS primed, ATP activated; HTRF); assay type: cell-based; details: THP-1 macrophages, 50 ng/mL LPS priming, compound 30 min, 20 mM ATP 2 hours
T1 construct: IL-1beta HTRF
Summary of the method: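 IL-1β release was read by HTRF after 16–24 h antibody incubation at room temperature, using supernatants from THP-1-derived macrophages (IFN-γ 25 ng/mL, LPS 50 ng/mL priming) given compound 30 min and then 20 mM ATP for 2 h. % inhibition versus concentration was fitted logistically for IC50.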

NF-κB pathway = assay: TNF-α assay (THP-1 cells differentiated to macrophages with IFN-γ, NF-κB pathway activated with LPS; ELISA); assay type: cell-based, Human; details: compound 30 min, 50 ng/mL LPS 3 hours
Summary of the method: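 TNF-α release measured by ELISA after 3 h stimulation with 50 ng/mL LPS, following 30 min compound pretreatment (37 °C, no FBS). Cells were THP-1 macrophages primed with IFN-γ 25 ng/mL for 24 h. IC50 derived by logistic curve fit.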

[1] = Homo sapiens, THP-1, THP-1 macrophages

T1 sequence (Q96P20 whole entry): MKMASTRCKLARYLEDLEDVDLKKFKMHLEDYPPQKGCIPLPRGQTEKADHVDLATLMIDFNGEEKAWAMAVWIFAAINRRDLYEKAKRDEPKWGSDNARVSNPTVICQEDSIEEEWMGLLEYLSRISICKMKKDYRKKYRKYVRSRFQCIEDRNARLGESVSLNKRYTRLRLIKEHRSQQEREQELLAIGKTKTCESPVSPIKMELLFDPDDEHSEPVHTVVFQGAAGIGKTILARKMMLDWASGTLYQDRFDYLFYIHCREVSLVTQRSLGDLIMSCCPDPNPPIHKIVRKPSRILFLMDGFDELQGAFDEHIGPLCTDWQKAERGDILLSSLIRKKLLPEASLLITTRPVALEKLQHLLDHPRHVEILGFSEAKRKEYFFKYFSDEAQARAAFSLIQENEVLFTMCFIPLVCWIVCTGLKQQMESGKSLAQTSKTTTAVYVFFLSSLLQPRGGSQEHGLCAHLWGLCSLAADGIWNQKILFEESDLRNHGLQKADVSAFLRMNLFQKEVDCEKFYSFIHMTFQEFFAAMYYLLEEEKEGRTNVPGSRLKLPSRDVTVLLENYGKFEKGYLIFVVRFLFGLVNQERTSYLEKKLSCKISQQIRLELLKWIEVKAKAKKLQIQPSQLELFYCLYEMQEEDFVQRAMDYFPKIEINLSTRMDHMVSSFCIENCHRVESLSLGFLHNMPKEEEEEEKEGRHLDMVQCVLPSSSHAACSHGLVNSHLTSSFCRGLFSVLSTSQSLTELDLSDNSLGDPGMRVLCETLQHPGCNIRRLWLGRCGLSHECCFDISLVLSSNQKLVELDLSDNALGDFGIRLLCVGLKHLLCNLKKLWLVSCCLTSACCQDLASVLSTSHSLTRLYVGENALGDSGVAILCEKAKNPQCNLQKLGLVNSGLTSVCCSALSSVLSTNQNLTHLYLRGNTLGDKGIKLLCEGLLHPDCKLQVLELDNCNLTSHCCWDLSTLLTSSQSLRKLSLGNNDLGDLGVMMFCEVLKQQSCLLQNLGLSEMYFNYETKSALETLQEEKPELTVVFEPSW

| SMILES | IC50 (NLRP3 inflammasome) | IC50 (NF-κB pathway; [1]) | IC50 (NF-κB pathway; THP-1 macrophages) |
| --- | --- | --- | --- |
| Cc1cc(C)c(-n2cc3sc(NC4CC5(CC(O)C5)C4)nc3n2)c(O)c1 (stereo not drawn) [Example 30, 6-{[2-(2-hydroxy-4,6-dimethylphenyl)-2H-pyrazolo[3,4-d][1,3]thiazol-5-yl]amino}spiro[3.3]heptan-2-ol] | 0.83 µM | > 10 µM | – |
| Cc1cc(C)c(-n2cc3sc(N[C@@H]4CC[C@H](O)C4)nc3n2)c(O)c1 [Example 47, 2-(5-{[(1R,3S)-3-hydroxycyclopentyl]amino}-2H-pyrazolo[3,4-d][1,3]thiazol-2-yl)-3,5-dimethylphenol or 2-(5-{[(1S,3R)-3-hydroxycyclopentyl]amino}-2H-pyrazolo[3,4-d][1,3]thiazol-2-yl)-3,5-dimethylphenol (tR2)] | 1.2 µM | – | > 10 µM |
| CO[C@H]1C[C@@H](Nc2nc3nn(-c4c(C)cc(C)cc4O)cc3s2)CN(C)C1 [Example 19, 2-(5-{[(3R,5S)-5-methoxy-1-methylpiperidin-3-yl]amino}-2H-pyrazolo[3,4-d][1,3]thiazol-2-yl)-3,5-dimethylphenol] | 5.4 µM | > 30 µM | – |
| COc1cc(C)c(-n2cc3sc(N[C@@H]4C[C@@H](F)CN(C)C4)nc3n2)c(O)c1 [Example 43, 2-(5-{[(3R,5R)-5-fluoro-1-methylpiperidin-3-yl]amino}-2H-pyrazolo[3,4-d][1,3]thiazol-2-yl)-5-methoxy-3-methylphenol] | 0.028 µM | > 30 µM | – |
| CCc1cc(C)cc(O)c1-n1cc2sc(NC[C@@H](C)O)nc2n1 [Example 87, 3-ethyl-2-(5-{[(2R)-2-hydroxypropyl]amino}-2H-pyrazolo[3,4-d][1,3]thiazol-2-yl)-5-methylphenol] | 0.096 µM | > 30 µM | – |
| CCc1cc(C)cc(O)c1-n1cc2sc(N[C@@H]3C[C@@H](F)CN(C)C3)nc2n1 [Example 20, 3-ethyl-2-(5-{[(3R,5R)-5-fluoro-1-methylpiperidin-3-yl]amino}-2H-pyrazolo[3,4-d][1,3]thiazol-2-yl)-5-methylphenol] | 0.0092 µM | > 30 µM | – |
| COCCN1CCC[C@@H](Nc2nc3nn(-c4c(C)cc(C)cc4O)cc3s2)C1 [Example 36, 2-(5-{[(3R)-1-(2-methoxyethyl)piperidin-3-yl]amino}-2H-pyrazolo[3,4-d][1,3]thiazol-2-yl)-3,5-dimethylphenol] | 0.034 µM | > 30 µM | – |
| CCc1cc(O)c(-n2cc3sc(N[C@@H]4C[C@@H](F)CN(C)C4)nc3n2)c(CC)c1 [Example 59, 3,5-diethyl-2-(5-{[(3R,5R)-5-fluoro-1-methylpiperidin-3-yl]amino}-2H-pyrazolo[3,4-d][1,3]thiazol-2-yl)phenol] | 0.023 µM | > 30 µM | – |
| Cc1cc(C)c(-n2cc3sc(N[C@@H]4CCCN(C)C4)nc3n2)c(O)c1 [Example 4, 3,5-dimethyl-2-(5-{[(3R)-1-methylpiperidin-3-yl]amino}-2H-pyrazolo[3,4-d][1,3]thiazol-2-yl)phenol] | 0.0036 µM | > 30 µM | – |
| Cc1cc(F)cc(O)c1-n1cc2sc(N[C@@H]3CCCN(C)C3)nc2n1 [Example 5, 5-fluoro-3-methyl-2-(5-{[(3R)-1-methylpiperidin-3-yl]amino}-2H-pyrazolo[3,4-d][1,3]thiazol-2-yl)phenol] | 0.015 µM | > 30 µM | – |
| Cc1cc(O)c(-n2cc3sc(N[C@@H]4C[C@@H](F)CN(C)C4)nc3n2)c(C2CC2)c1 [Example 65, 3-cyclopropyl-2-(5-{[(3R,5R)-5-fluoro-1-methylpiperidin-3-yl]amino}-2H-pyrazolo[3,4-d][1,3]thiazol-2-yl)-5-methylphenol] | 0.0083 µM | > 30 µM | – |
| CCC(O)CNc1nc2nn(-c3c(C)cc(C)cc3O)cc2s1 (stereo not drawn) [Example 83, 2-{5-[(2-hydroxybutyl)amino]-2H-pyrazolo[3,4-d][1,3]thiazol-2-yl}-3,5-dimethylphenol] | 0.82 µM | > 30 µM | – |
| CC(=O)N1C[C@H](Nc2nc3nn(-c4c(C)cc(C)cc4O)cc3s2)[C@@H](F)C1 (racemic) [Example 104, racemic mixture of 1-[(3R,4R)-3-fluoro-4-{[2-(2-hydroxy-4,6-dimethylphenyl)-2H-pyrazolo[3,4-d][1,3]thiazol-5-yl]amino}pyrrolidin-1-yl]ethan-1-one and 1-[(3S,4S)-3-fluoro-4-{[2-(2-hydroxy-4,6-dimethylphenyl)-2H-pyrazolo[3,4-d][1,3]thiazol-5-yl]amino}pyrrolidin-1-yl] ethan-1-one] | 0.44 µM | > 30 µM | – |

Other lines, results leading:

| IC50 (NLRP3 inflammasome) | IC50 (NF-κB pathway; [1]) | IC50 (NF-κB pathway; THP-1 macrophages) | SMILES |
| --- | --- | --- | --- |
| 0.31 µM | > 30 µM | – | Cc1cc(C)c(-n2cc3sc(N[C@H]4CN(C(=O)CC5CC5)C[C@@H]4F)nc3n2)c(O)c1 (racemic) [Example 106, racemic mixture of 2-cyclopropyl-1-[(3R,4R)-3-fluoro-4-{[2-(2-hydroxy-4,6-dimethylphenyl)-2H-pyrazolo[3,4-d][1,3]thiazol-5-yl]amino}pyrrolidin-1-yl]ethan-1-one and 2-cyclopropyl-1-[(3S,4S)-3-fluoro-4-{[2-(2-hydroxy-4,6-dimethylphenyl)-2H-pyrazolo[3,4-d][1,3]thiazol-5-yl]amino}pyrrolidin-1-yl]ethan-1-one] |
| 8.4 µM | > 30 µM | – | Cc1cc(C)c(-n2cc3sc(N[C@H]4C[C@@H](F)CN(C)C4)nc3n2)c(O)c1 [Example 178, 2-(5-{[(3S,5R)-5-fluoro-1-methylpiperidin-3-yl]amino}-2H-pyrazolo[3,4-d][1,3]thiazol-2-yl)-3,5-dimethylphenol] |
| 0.11 µM | > 30 µM | – | COc1cc(C)c(-n2cc3sc(N[C@@H]4C[C@@H](F)CN(C5CC5)C4)nc3n2)c(O)c1 [Example 174, 2-(5-{[(3R,5R)-1-cyclopropyl-5-fluoropiperidin-3-yl]amino}-2H-pyrazolo[3,4-d][1,3]thiazol-2-yl)-5-methoxy-3-methylphenol] |
| 0.66 µM | > 30 µM | – | Cc1cc(C)c(-n2cc3sc(N[C@H]4CCOC4)nc3n2)c(O)c1 [Example 158, 3,5-dimethyl-2-(5-{[(3S)-oxolan-3-yl]amino}-2H-pyrazolo[3,4-d][1,3]thiazol-2-yl)phenol] |
| 0.6 µM | > 10 µM | – | Cc1cc(C)c(-n2cc3sc(NCC4(F)CCC4)nc3n2)c(O)c1 [Example 138, 2-(5-{[(1-fluorocyclobutyl)methyl]amino}-2H-pyrazolo[3,4-d][1,3]thiazol-2-yl)-3,5-dimethylphenol] |
| 1.1 µM | > 30 µM | – | COC(=O)N1CCC(Nc2nc3nn(-c4c(C)cc(C)cc4O)cc3s2)CC1 [Example 130, methyl 4-{[2-(2-hydroxy-4,6-dimethylphenyl)-2H-pyrazolo[3,4-d][1,3]thiazol-5-yl]amino}piperidine-1-carboxylate] |
| 0.04 µM | > 30 µM | – | COCc1cc(C)cc(O)c1-n1cc2sc(N[C@@H]3C[C@@H](F)CN(C)C3)nc2n1 [Example 177, 2-(5-{[(3R,5R)-5-fluoro-1-methylpiperidin-3-yl]amino}-2H-pyrazolo[3,4-d][1,3]thiazol-2-yl)-3-(methoxymethyl)-5-methylphenol] |
| 0.72 µM | > 30 µM | – | CO[C@H](C)CNc1nc2nn(-c3c(C)cc(C)cc3O)cc2s1 [Example 120, 2-(5-{[(2R)-2-methoxypropyl]amino}-2H-pyrazolo[3,4-d][1,3]thiazol-2-yl)-3,5-dimethylphenol] |

Reference: US20260365671A1, “HETEROCYCLIC COMPOUND” (Takeda Pharmaceutical Company Limited, priority 2022, published 2026)
